Like-named read-outs stand apart in the source and are kept apart here.
Key:
[1] = biological target: T1, HCV NS5B polymerase (His-tagged, C-terminal 21 amino acid deleted NS5B, HC-J4) (Hepatitis C virus genotype 1b, UniProt O92972); experiment: NS5b polymerase assay (biochemical RdRp assay, 3H-GTP incorporation, SPA beads); design: species or system HCV genotype 1b
T1 construct: The cDNA encoding NS5B amino acid 1-570 (HC-J4, genotype 1b); His tag (His6, from pET-21b) (C); made in house; host or cells: E. coli BL21 (DE3)
T1 sequence (O92972 2417-3000, looked up, stated change not applied): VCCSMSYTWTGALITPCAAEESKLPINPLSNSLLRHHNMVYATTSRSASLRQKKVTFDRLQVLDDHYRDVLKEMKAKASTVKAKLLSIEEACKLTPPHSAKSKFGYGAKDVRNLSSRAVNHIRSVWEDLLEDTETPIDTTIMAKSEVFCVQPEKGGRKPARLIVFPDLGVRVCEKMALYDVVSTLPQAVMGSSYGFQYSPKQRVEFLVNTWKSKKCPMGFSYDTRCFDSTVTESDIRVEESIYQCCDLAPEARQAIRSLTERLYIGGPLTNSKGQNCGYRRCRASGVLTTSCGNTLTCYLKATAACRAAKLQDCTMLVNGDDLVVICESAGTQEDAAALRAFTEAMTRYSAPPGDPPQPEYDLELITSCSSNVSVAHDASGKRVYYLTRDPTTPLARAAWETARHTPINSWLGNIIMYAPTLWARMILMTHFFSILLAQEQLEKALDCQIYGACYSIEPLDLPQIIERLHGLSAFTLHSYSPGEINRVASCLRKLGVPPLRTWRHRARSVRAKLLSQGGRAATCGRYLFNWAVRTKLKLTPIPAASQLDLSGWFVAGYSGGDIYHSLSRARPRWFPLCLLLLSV
Experimental: (§1) The compounds of formula (I) were tested for anti-HCV activity in an assay determining their activity against NS5b polymerase and in an HCV replicon assay
The cDNA encoding NS5B amino acid 1-570 (HC-J4, genotype 1b, pCV-J4L6S, genebank accession number AF054247) was subcloned into the Nhe I and Xho I restriction sites of pET-21b. Expression of the subsequent His-tagged C-terminal 21 amino acid deleted NS5B was performed as follows:
Following transformation in BL21 (DE3) competent cells, bacterial cells were grown in 22 liter LB/Amp media until to reach OD600=0.4-0.6. Protein expression was induced by addition of IPTG 0.4 mM, supplemented with 10 μM MgCl2, and incubated for 14-16 hrs at 20° C. Cells were harvested, resuspended in lysis buffer (20 mM Tris-HCl pH=7.5, 0.3 M NaCl, 10% glycerol, 0.1% NP40, 4 mM MgCl2, 14 mM beta-mercaptoethanol, with tablet of EDTA-free protease cocktail inhibitors) and lysed by sonification. The cell lysate was cleared by high-speed centrifugation (20K×g for 30 min), captured on Ni-NTA beads for 70 min at 4° C., and eluted with 25 mM Hepes pH 7.5, 0.5 M NaCl, 10% glycerol, 14 mM BME, 500 mM imidazole. The eluent was dialysed against 25 mM Hepes pH 7.5, 10% glycerol, 50 mM NaCl, 14 mM BME, after which the protein was further purified by heparin chromatography using the same buffer with 1 M NaCl for elution. Fractions containing pure protein were collected, dialyzed against storage buffer 25 mM Hepes pH=7.5, 300 mM NaCl, 10% glycerol, 14 mM BME), and flash-freezed in liquid nitrogen.
Measurement of HCV NS5B polymerization activity was performed by evaluating the amount of radiolabeled GTP incorporated by the enzyme in a newly synthesized RNA using heteropolymeric RNA template/primer. The highthroughput RdRp assay was carried out in 384-well plates using 200 nM enzyme, 0.1 μCi of ^3H GTP, 5 mM MgCl2, 600 nM GTP, 30 nM PolyC, 300 nM 5′-biotinylated oligo(rG13)/poly(rC) in 20 mM Tris pH 7.5, 21 mM KCl, 2.5 mM DTT, 16.7 mM NaCl and 0.17 mM EDTA. Test compounds were dissolved in dimethylsulfoxide. The test compounds were added to the preformed polymerase-template complex, and incubated at room temperature (RT) for 15 min before the addition of NTPs. The 30-μl reaction was terminated after 2 h at 25° C. upon addition of 30-μl PVT-SPA beads (Amersham Biosciences RPNQ0009, 5 mg/ml in 0.5 M EDTA).

[2] = tested on: HCV replicon RNA replication in Huh-7 luc/neo (Huh-Luc) cells; experiment: HCV replicon assay (stable replicon cell reporter assay, luciferase read-out); assay type: cell-based, HCV type 1b
Experimental: as §1
The compounds of the present invention were examined for activity in the inhibition of HCV RNA replication in a cellular assay. […] The cellular assay was based on a bicistronic expression construct, as described by Lohmann et al. (1999) Science vol. 285 pp. 110-113 with modifications described by Krieger et al. (2001) Journal of Virology 75: 4614-4624, in a multi-target screening strategy. In essence, the method was as follows.
The assay utilized the stably transfected cell line Huh-7 luc/neo (hereafter referred to as Huh-Luc). This cell line harbored an RNA encoding a bicistronic expression construct comprising the wild type NS3-NS5B regions of HCV type 1b translated from an Internal Ribosome Entry Site (IRES) from encephalomyocarditis virus (EMCV), preceded by a reporter portion (FfL-luciferase), and a selectable marker portion (neo^R, neomycine phosphotransferase). The construct was bordered by 5′ and 3′ NTRs (non-translated regions) from HCV type 1b. Continued culture of the replicon cells in the presence of G418 (neo^R) was dependent on the replication of the HCV RNA. The stably transfected replicon cells that expressed HCV RNA, which replicated autonomously and to high levels, encoding inter alia luciferase, were used for screening the antiviral compounds.
The replicon cells were plated in 384 well plates in the presence of the test and control compounds which were added in various concentrations. Following an incubation of three days, HCV replication was measured by assaying luciferase activity (using standard luciferase assay substrates and reagents and a Perkin Elmer ViewLux™ ultraHTS microplate imager). […] The inhibitory activity of the compound on luciferase activity was monitored on the Huh-Luc cells, enabling a dose-response curve for each test compound.

[3] = 200 nM enzyme, 3H-GTP incorporation, 2 h at 25° C., read-out: NS5B Polymerase Assay IC50
[4] = Huh-Luc cells, three days incubation, luciferase activity, read-out: Replicon Assay EC50
[5] = NS5B Polymerase Assay IC50, 200 nM enzyme, 3H-GTP incorporation, 2 h at 25° C.
[6] = Hepatitis C virus, Huh-7, 72 h, read-out: Replicon Assay EC50, Huh-Luc cells, three days incubation, luciferase activity
[7] = NS5B Polymerase Assay IC50 (μM)
[8] = Hepatitis C virus, Huh-7, 72 h, read-out: Replicon Assay EC50 (μM), Huh-Luc cells, incubation of three days, luciferase activity

SMILES | IC50 [1, 3] [µM] | EC50 [2, 4] [µM] | further results
CCCCCC(=O)N1c2ccccc2NC2=C(C(=O)CC(c3ccc(OC)c(OC)c3)C2)C1c1cccc(Cl)c1 (mixture of isomers) [compound 205] | > 33.3 | 9.96 | –
COc1ccc(C2CC(=O)C3=C(C2)Nc2ccccc2N(C(=O)c2ccccc2)C3c2ccc(C)cc2)cc1 (mixture of isomers) [compound 206] | > 33.3 | 10.9 | –
O=C1CC(c2ccc(Cl)cc2)CC2=C1C(c1cccc(Cl)c1)N(C(=O)C(F)(F)F)c1ccccc1N2 (mixture of isomers) [compound 208] | > 33.3 | 11.1 | –
Cc1ccc(C2CC(=O)C3=C(C2)Nc2ccccc2N(C(=O)c2ccccc2)C3c2ccccc2)cc1 (mixture of isomers) [compound 209] | > 33.3 | 11.8 | –
COc1ccc(C2CC(=O)C3=C(C2)Nc2ccccc2N(C(=O)C(F)(F)F)C3c2ccc(Cl)cc2)cc1 (mixture of isomers) [compound 210] | > 33.3 | 12.1 | –
Cc1ccc(C2C3=C(CC(c4cccc([N+](=O)[O-])c4)CC3=O)Nc3ccccc3N2C(=O)c2ccccc2)cc1 (mixture of isomers) [compound 212] | > 42.7 | 23.9 | –
CCCCCC(=O)N1c2ccccc2NC2=C(C(=O)CC(c3ccc(Cl)cc3)C2)C1c1ccc(OC)cc1 (mixture of isomers) [compound 215] | > 33.3 | 14.1 | –
CCOc1ccccc1C1C2=C(CC(c3ccc(OC)cc3)CC2=O)Nc2ccccc2N1C(=O)C(F)(F)F (mixture of isomers) [compound 216] | > 42.7 | 25.3 | –
CCCCOc1ccc(C2CC(=O)C3=C(C2)Nc2ccccc2N(C(=O)CC)C3c2ccccc2)cc1 (mixture of isomers) [compound 217] | > 42.7 | 20.3 | –
COc1ccc(C2CC(=O)C3=C(C2)Nc2ccccc2N(C(=O)c2ccccc2)C3c2ccc(Cl)cc2)cc1OC (mixture of isomers) [compound 218] | > 33.3 | 14.8 | –
CC(=O)N1c2ccccc2NC2=C(C(=O)CC(c3ccccc3OCc3ccccc3)C2)C1C(Br)=Cc1ccccc1 (mixture of isomers) [compound 299] | – | – | IC50 [1, 5]: > 133 µM; EC50 [2, 6]: 2.36 µM
O=C1CC(c2ccccc2OCc2ccccc2)CC2=C1C(C(Br)=Cc1ccccc1)Nc1ccccc1N2 (mixture of isomers) [compound 497] | – | – | IC50 [1, 7]: > 133 µM; EC50 [2, 8]: 3.79 µM
O=C1CC(c2ccccc2OCc2ccccc2)CC2=C1C(C(Br)=Cc1ccccc1)Nc1ccccc1N2 (mixture of isomers) [compound 498] | – | – | IC50 ([1]; read-out: NS5B Polymerase Assay IC50): > 133 µM; EC50 ([2]; Huh-Luc cells, incubation of three days, luciferase activity, read-out: Replicon Assay EC50): 2.92 µM
CC1(C)CC(=O)C2=C(C1)Nc1ccccc1N(C(=O)C(F)(F)F)C2/C=C/c1ccccc1 (racemic) [compound 244] | – | – | IC50 [1, 5]: > 33.3 µM; EC50 [2, 6]: 15.9 µM
CC1(C)CC(=O)C2=C(C1)Nc1ccccc1NC2/C(Br)=C/c1ccccc1 (racemic) [compound 500, 11-(1-Bromo-2-phenylvinyl)-3,3-dimethyl-2,3,4,5,10,11-hexahydro-dibenzo[b,e][1,4]diazepin-1-one] | – | – | IC50 [1, 7]: > 133 µM; EC50 [2, 8]: 26.5 µM
CC1(C)CC(=O)C2=C(C1)Nc1ccccc1NC2/C(Cl)=C/c1ccccc1 (racemic) [compound 506, 11-(1-Chloro-2-phenylvinyl)-3,3-dimethyl-2,3,4,5,10,11-hexahydro-dibenzo[b,e][1,4]diazepin-1-one] | – | – | IC50 [1, 7]: > 42.7 µM; EC50 [2, 8]: 56.7 µM
CC(=O)N1c2ccccc2NC2=C(C(=O)CC(C)(C)C2)C1c1ccc(Cl)cc1Cl (single isomer, unassigned) [compound 35, 10-Acetyl-11-(2,4-dichlorophenyl)-2,3,4,5,10,11-hexahydro-3,3-dimethyl-1H-dibenzo[b,e][1,4]diazepin-1-one] | – | – | IC50 [1, 5]: 1.28 µM; EC50 ([2]; read-out: Replicon Assay EC50, Huh-Luc cells, three days incubation, luciferase activity): 20.5 µM
CC(=O)N1c2ccccc2NC2=C(C(=O)CC(C)(C)C2)C1c1ccc(Cl)cc1Cl (single isomer, unassigned) [compound 36, 10-Acetyl-11-(2,4-dichlorophenyl)-2,3,4,5,10,11-hexahydro-3,3-dimethyl-1H-dibenzo[b,e][1,4]diazepin-1-one] | – | – | IC50 [1, 5]: > 41.3 µM; EC50 [2, 6]: 17 µM
